In brackets after ≈: the same amount, converted by molar mass. Values belong to the molecule of their own block, whether it stands above or below them.
Assays:
MCF7 = assay: Cytotoxicity against human MCF7 cells assessed as reduction in cell viability at 0.1 to 100 uM by MTT assay; format: functional, cell-based
Staphylococcus aureus [1] = assay: Antibacterial activity against Staphylococcus aureus assessed as reduction in bacterial cell growth at 0.03 to 64 ug/ml incubated for 16 to 18 hrs by CLSI broth dilution method; format: functional
Suillus luteus = assay: Antifungal activity against Suillus luteus assessed as reduction in fungal cell growth; format: functional
Staphylococcus aureus [2] = assay: Antibacterial activity against Staphylococcus aureus assessed as diameter of zone inhibition at 100 ppm by disc diffusion method; format: functional; conditions: read-out: DIZ
Escherichia coli [3] = assay: Antibacterial activity against Escherichia coli assessed as diameter of zone inhibition at 100 ppm by disc diffusion method; format: functional; conditions: read-out: DIZ
Pseudomonas aeruginosa = assay: Antibacterial activity against Pseudomonas aeruginosa ATCC 27853 assessed as reduction in bacterial cell growth at 0.03 to 64 ug/ml incubated for 16 to 18 hrs by CLSI broth dilution method; format: functional
Staphylococcus aureus [4] = assay: Antibacterial activity against Staphylococcus aureus ATCC 25923 assessed as reduction in bacterial cell growth at 0.03 to 64 ug/ml incubated for 16 to 18 hrs by CLSI broth dilution method; format: functional
Enterococcus faecalis = assay: Antibacterial activity against Enterococcus faecalis ATCC 29212 assessed as reduction in bacterial cell growth at 0.03 to 64 ug/ml incubated for 16 to 18 hrs by CLSI broth dilution method; format: functional
Escherichia coli [5] = assay: Antibacterial activity against Escherichia coli ATCC 25922 assessed as reduction in bacterial cell growth at 0.03 to 64 ug/ml incubated for 16 to 18 hrs by CLSI broth dilution method; format: functional
Staphylococcus aureus [6] = assay: Antibacterial activity against Staphylococcus aureus; format: functional
Staphylococcus aureus [7] = assay: Antibacterial activity against Staphylococcus aureus assessed as inhibition zone; format: functional

MIC (Staphylococcus aureus [1]): 2 µg/mL (≈ 3.44 µM)
Compound: N#Cc1ccc(/C=C/c2nc3ccccc3c(=O)n2-c2cccc(OCc3cn(Cc4ccc([N+](=O)[O-])cc4)nn3)c2)cc1

MIC (Staphylococcus aureus [1]): 16 µg/mL (≈ 26 µM)
Compound: N#Cc1ccc(/C=C/c2nc3ccccc3c(=O)n2-c2cccc(OCc3cn(Cc4ccc(Br)cc4)nn3)c2)cc1

MIC (Staphylococcus aureus [1]): 4 µg/mL (≈ 6.77 µM)
Compound: N#Cc1ccc(/C=C/c2nc3ccccc3c(=O)n2-c2cccc(OCc3cn(-c4ccc(C(F)(F)F)cc4)nn3)c2)cc1

MIC (Staphylococcus aureus [1]): 4 µg/mL (≈ 7.06 µM)
Compound: N#Cc1ccc(/C=C/c2nc3ccccc3c(=O)n2-c2cccc(OCc3cn(-c4cccc(C(=O)O)c4)nn3)c2)cc1

MIC (Staphylococcus aureus [1]): 0.5 µg/mL (≈ 0.882 µM)
Compound: COc1ccc(Cn2cc(COc3cccc(-n4c(/C=C/c5ccc(C#N)cc5)nc5ccccc5c4=O)c3)nn2)cc1

MIC (Staphylococcus aureus [1]): 0.5 µg/mL (≈ 0.812 µM)
Compound: N#Cc1ccc(/C=C/c2nc3ccccc3c(=O)n2-c2cccc(OCc3cn(Cc4cccc(Br)c4)nn3)c2)cc1

MIC (Staphylococcus aureus [1]): 0.5 µg/mL (≈ 0.932 µM)
Compound: Cc1cccc(-n2cc(COc3cccc(-n4c(/C=C/c5ccc(C#N)cc5)nc5ccccc5c4=O)c3)nn2)c1

MIC (Staphylococcus aureus [1]): 4 µg/mL (≈ 7.24 µM)
Compound: COc1ccc(-n2cc(COc3cccc(-n4c(/C=C/c5ccc(C#N)cc5)nc5ccccc5c4=O)c3)nn2)cc1

MIC (Staphylococcus aureus [1]): 0.5 µg/mL (≈ 0.925 µM)
Compound: N#Cc1ccc(/C=C/c2nc3ccccc3c(=O)n2-c2cccc(OCc3cn(-c4cccc(F)c4)nn3)c2)cc1

MIC (Staphylococcus aureus [1]): 0.5 µg/mL (≈ 0.898 µM)
Compound: N#Cc1ccc(/C=C/c2nc3ccccc3c(=O)n2-c2cccc(OCc3cn(-c4ccc(Cl)cc4)nn3)c2)cc1

More lines, now with the values behind:

Compound: Cn1cc[n+](C(Cn2cnc3ccc(Cl)cc3c2=O)c2cc3cc(Br)ccc3o2)c1 (centres undefined)
IC50 (MCF7): 570 to 1000 nM

Compound: N#Cc1ccc(/C=C/c2nc3ccccc3c(=O)n2-c2cccc(OCc3cn(Cc4ccccc4)nn3)c2)cc1
MIC (Staphylococcus aureus [1]): 0.5 µg/mL (≈ 0.932 µM)

Compound: N#Cc1ccc(/C=C/c2nc3ccccc3c(=O)n2-c2ccc(OCc3cn(Cc4ccc(Br)cc4)nn3)cc2)cc1
MIC (Staphylococcus aureus [1]): > 64 µg/mL

Compound: N#Cc1ccc(/C=C/c2nc3ccccc3c(=O)n2-c2cccc(OCc3cn(-c4cccc(Cl)c4)nn3)c2)cc1
MIC (Staphylococcus aureus [1]): 0.5 µg/mL (≈ 0.898 µM)

Compound: O=c1c2ccccc2nc(/C=C/c2ccc(Cl)cc2)n1-c1cccc(OCc2cn(-c3cccc(F)c3)nn2)c1
MIC (Staphylococcus aureus [1]): 4 µg/mL (≈ 7.27 µM)

Compound: C#CCOc1cccc(-n2c(/C=C/c3ccc(C#N)cc3)nc3c(C)cccc3c2=O)c1
MIC (Staphylococcus aureus [1]): 1 µg/mL (≈ 2.4 µM)

Compound: CCCCNC(=O)Oc1ccc(-n2c(/C=C/c3ccc(Cl)cc3)nc3cc(Cl)ccc3c2=O)cc1
MIC (Suillus luteus): 125 µg/mL (≈ 246 µM)

Compound: Cc1nc2ccc(Br)cc2c(=O)n1/N=C/c1cc(Br)cc(Br)c1O
zone of inhibition at 100 ppm (Staphylococcus aureus [2]): 24 mm
zone of inhibition at 100 ppm (Escherichia coli [3]): 27 mm

Compound: Cn1cc[n+](C(Cn2cnc3ccc(Cl)cc3c2=O)c2cc3ccccc3o2)c1 (centres undefined)
IC50 (MCF7): 570 to 1000 nM

Compound: CC(C)NC(=O)c1cccc(-n2c(/C=C/c3ccc(C#N)cc3)nc3ccccc3c2=O)c1
MIC (Staphylococcus aureus [1]): 0.25 µg/mL (≈ 0.575 µM)

Compound: N#Cc1ccc(/C=C/c2nc3ccccc3c(=O)n2-c2cccc(C#N)c2)cc1
MIC (Staphylococcus aureus [1]): 0.5 µg/mL (≈ 1.34 µM)

Compound: O=c1c2c(Br)cc(Br)cc2nc(-c2ccccc2)n1-c1nc2ccc(Br)cc2s1
MIC (Pseudomonas aeruginosa): 1 to 8.5 µg/mL (≈ 1.69 to 14.4 µM)
MIC (Staphylococcus aureus [4]): 1 to 8.5 µg/mL (≈ 1.69 to 14.4 µM)
MIC (Enterococcus faecalis): 1 to 8.5 µg/mL (≈ 1.69 to 14.4 µM)
MIC (Escherichia coli [5]): 1 to 8.5 µg/mL (≈ 1.69 to 14.4 µM)

Compound: Cc1nc2ccc(Br)cc2c(=O)n1/N=C/c1cc(I)cc(I)c1O
zone of inhibition at 100 ppm (Staphylococcus aureus [2]): 14 mm
zone of inhibition at 100 ppm (Escherichia coli [3]): 16 mm

Compound: Cc1nc2ccc(Br)cc2c(=O)n1/N=C/c1cc(Cl)cc(Cl)c1O
zone of inhibition at 100 ppm (Staphylococcus aureus [2]): 14 mm
zone of inhibition at 100 ppm (Escherichia coli [3]): 16 mm

Compound: C=CCOc1cccc(-n2c(/C=C/c3ccc(C#N)cc3)nc3ccccc3c2=O)c1
MIC (Staphylococcus aureus [1]): 0.125 µg/mL (≈ 0.308 µM)

Compound: COc1ccc2ncn(CC(c3cc4ccccc4o3)[n+]3ccn(C)c3)c(=O)c2c1 (centres undefined)
IC50 (MCF7): 570 to 1000 nM

Compound: Cc1ccc2c(c1)c(=O)n(-c1ccccc1)c1nnc(-c3ccccc3)n21
MIC (Staphylococcus aureus [6]): 32 µg/mL (≈ 90.8 µM)
inhibition zone (IZ) (Staphylococcus aureus [7]): 17 mm

Compound: O=c1c2c(Br)cc(Br)cc2nc(-c2ccccc2)n1-c1nc2cc(Cl)ccc2s1
MIC (Pseudomonas aeruginosa): 1.2 to 9 µg/mL (≈ 2.19 to 16.4 µM)
MIC (Staphylococcus aureus [4]): 1.2 to 9 µg/mL (≈ 2.19 to 16.4 µM)
MIC (Enterococcus faecalis): 1.2 to 9 µg/mL (≈ 2.19 to 16.4 µM)
MIC (Escherichia coli [5]): 1.2 to 9 µg/mL (≈ 2.19 to 16.4 µM)

Compound: Cc1cccc2c(=O)n(-c3cccc(O)c3)c(/C=C/c3ccc(C#N)cc3)nc12
MIC (Staphylococcus aureus [1]): 0.5 µg/mL (≈ 1.32 µM)

— ChEMBL document CHEMBL4385594, “4(3H)-Quinazolinone derivatives: Promising antibacterial drug leads” (Eur J Med Chem, 2019)
